Laboratory results reported in patent US12344610B2, “APOL1 inhibitors and methods of use” (Maze Therapeutics, Inc., priority 2022, dated 2025).

What was measured:
Type in all cases: cell-based
[1] = target: T1, APOL1 G2 (Homo sapiens, UniProt O14791, DEL388-389); assay: APOL1-mediated calcium transport (calcium influx) assay, HEK T-REx/GCaMP6f/APOL1 G2 K6.3 cells, FLIPR TETRA; settings: prevention of calcium influx; geometric mean of at least 2 assay runs; † = average of a technical replicate from a single assay run
T1 construct: expressed in transfected cells; host or cells: HEK293 T-REx clonal line stably expressing GCaMP6f (HEK T-REx/GCaMP6f/APOL1 G2 K6.3), doxycycline induced
T1 sequence (O14791 with tags, fused parts or gaps DEL388-389): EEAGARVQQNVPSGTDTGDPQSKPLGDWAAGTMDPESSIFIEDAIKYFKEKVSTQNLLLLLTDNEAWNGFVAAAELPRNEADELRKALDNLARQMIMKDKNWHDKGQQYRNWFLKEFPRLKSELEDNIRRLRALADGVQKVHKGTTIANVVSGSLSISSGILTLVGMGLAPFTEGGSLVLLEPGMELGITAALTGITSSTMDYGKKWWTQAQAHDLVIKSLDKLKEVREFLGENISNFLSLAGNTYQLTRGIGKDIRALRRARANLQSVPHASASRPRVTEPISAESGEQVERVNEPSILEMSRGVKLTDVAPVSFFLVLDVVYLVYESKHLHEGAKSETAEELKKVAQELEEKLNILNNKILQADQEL
Procedure, shortened: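 A HEK293 T-REx clone stably expressing GCaMP6f had APOL1 G2 induced with doxycycline (20 ng/mL solution added) for 6 h. Cells were then washed into Ca2+-free Tyrode's buffer (pH 7.4) and preincubated with compounds (duplicate 8-point) for 10 min at room temperature. Ca2+ injection to 5 mM final produced FLIPR GCaMP fluorescence, giving AC50 for influx inhibition (geometric mean, ≥2 runs).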

[2] = tested on: HEK293 cells overexpressing APOL1 G2; assay: APOL1 G2 HEK293 cell rescue assay (reversal of cell death caused by overexpression of APOL1); settings: Homo sapiens, HEK293, HEK293 overexpressing APOL1 G2; geometric mean of at least 2 assay runs; † = single assay run
Procedure, shortened: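 Each compound tested in duplicate wells on one plate per run, with values usually the geometric mean across at least two runs on different days, occasionally from one run only. Read-out: concentration giving half-maximal rescue of APOL1 G2 overexpression-induced death of HEK293 cells.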

[3] = tested on: HEK293 clonal cell line overexpressing APOL1 G1; assay: APOL1 G1 HEK293 cell rescue assay (Example B3); settings: Homo sapiens, HEK293, HEK293 clonal line overexpressing APOL1 G1; geometric mean of at least 2 runs; † = single run; ¥ = concentration at 50% rescue estimated (no sigmoidal curve)
Procedure, shortened: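 Rescue of cell death caused by APOL1 G1 overexpression was measured in a clonal HEK293 line. Compounds were tested in duplicate on one plate, and EC50s were geometric means across at least two runs on different days. Some values are estimated 50%-rescue concentrations where curve fitting failed.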

| SMILES | AC50 [1] [nM] | EC50 [2] [nM] | EC50 [3] [nM] |
| --- | --- | --- | --- |
| CC(COc1ccc2c(c1)CCC(=O)N2C)N1CCC2(CC1)C(=O)Nc1ccc(Cl)cc12 (stereo not drawn) [Compound 199, 5-chloro-1′-{1-[(1-methyl-2-oxo-1,2,3,4-tetrahydroquinolin-6-yl)oxy]propan-2-yl}-1,2-dihydrospiro[indole-3,4′-piperidin]-2-one] | 1130 | 148 | 312 |
| CC(COc1ccc2c(c1)CCC(=O)N2C)N1CCC2(CC1)C(=O)Nc1ccc(C#N)cc12 (stereo not drawn) [Compound 202, 1′-{1-[(1-methyl-2-oxo-1,2,3,4-tetrahydroquinolin-6-yl)oxy]propan-2-yl}-2-oxo-1,2-dihydrospiro[indole-3,4′-piperidine]-5-carbonitrile] | 1720 | 315 | 2550 |
| CS(=O)(=O)c1ccc(OCCN2CCC3(CC2)C(=O)Nc2ccc(Cl)cc23)cc1C(F)CF (stereo not drawn) [Compound 217, 5-chloro-1′-{2-[3-(1,2-difluoroethyl)-4-methanesulfonylphenoxy]ethyl}-1,2-dihydrospiro[indole-3,4′-piperidin]-2-one] | 866 | 32.6 | 108 |
| CS(=O)(=O)c1ccc(OCCN2CCC3(CC2)C(=O)Nc2ccc(C#N)cc23)cc1C(F)CF (stereo not drawn) [Compound 220, 1′-{2-[3-(1,2-difluoroethyl)-4-methanesulfonyl-phenoxy]ethyl}-2-oxo-1,2-dihydrospiro [indole-3,4′-piperidine]-5-carbonitrile] | 679 | 53 | 301 |
| CS(=O)(=O)c1ccc(OCCN2CCC3(CC2)C(=O)Nc2ccc(Cl)cc23)cc1C1COC1 [Compound 223, 5-chloro-1′-{2-[4-methanesulfonyl-3-(oxetan-3-yl)phenoxy]ethyl}-1,2-dihydrospiro[indole-3,4′-piperidin]-2-one] | 311 | 97.8 | 326 |
| CNC(=O)N1CCc2cc(OCCN3CCC4(CC3)C(=O)Nc3ccc(C#N)cc34)ccc2C1 [Compound 246, 6-(2-{5-cyano-2-oxo-1,2-dihydrospiro[indole-3,4′-piperidin]-1′-yl}ethoxy)-N-methyl-1,2,3,4-tetrahydroisoquinoline-2-carboxamide] | 1340 | 562 | 4860 |
| N#Cc1ccc2c(c1)C1(CCN(CCOc3ccc(C4(C(=O)N5CC(F)C5)COC4)cc3)CC1)C(=O)N2 [Compound 252, 1′-(2-{4-[3-(3-fluoroazetidine-1-carbonyl)oxetan-3-yl]phenoxy}ethyl)-2-oxo-1,2-dihydrospiro[indole-3,4′-piperidine]-5-carbonitrile] | 1350 | 471 | ~1800 |
| N#Cc1ccc2c(c1)C1(CCN(CCOc3ccc(C4(C(=O)N5CCC5)COC4)cc3)CC1)C(=O)N2 [Compound 253, 1′-(2-{4-[3-(azetidine-1-carbonyl)oxetan-3-yl]phenoxy}ethyl)-2-oxo-1,2-dihydrospiro[indole-3,4′-piperidine]-5-carbonitrile] | 1220 | 608 | ~4400 |
| O=C1Cc2cc(OCCN3CCC4(CC3)C(=O)Nc3ccc(Cl)cc34)cc(F)c2N1 [Compound 256, 5-chloro-1′-{2-[(7-fluoro-2-oxo-2,3-dihydro-1H-indol-5-yl)oxy]ethyl}-1,2-dihydrospiro[indole-3,4′-piperidin]-2-one] | 261 | 44.6 | 116 |
| CC(C)(C(N)=O)c1ccc(OCCN2CCC3(CC2)C(=O)Nc2ccc(C#N)cc23)cc1 [Compound 257, 2-[4-(2-{5-cyano-2-oxo-1,2-dihydrospiro[indole-3,4′-piperidin]-1′-yl}ethoxy)phenyl]-2-methylpropanamide] | 974 | 256 | ~1000 |
| NC(=O)c1ncc(OCCN2CCC3(CC2)C(=O)Nc2ccc(Cl)cc23)cn1 [Compound 258, 5-(2-{5-chloro-2-oxo-1,2-dihydrospiro[indole-3,4′-piperidin]-1′-yl}ethoxy)pyrimidine-2-carboxamide] | 1050 | 444 | ~1300 |
